In patent US6342511B1, “Phencyclidine derivatives, preparation method and pharmaceutical compositions containing same” (Societe de Conseils de Recherches et d'Applications …, priority 1977, dated 2002):
Like-named read-outs stand apart in the source and are kept apart here.

Assays:
Type in all cases: binding
[1] = target: T1, PCP1 sites (Rattus norvegicus, UniProt P35439); experiment: [3H]TCP displacement, cortex membranes, 1-site model; conditions: for cortex 1 site nH: Hill number of the cortex displacement curve
T1 construct: membrane preparations originating from anterior cerebrum homogenates of rats; from tissue; host or cells: rat anterior cerebrum (forebrain/cortex) membranes
Procedure: (§1) The affinity of the compounds for their potential bond site, can be evaluated by quantifying their ability to displace a specific tritiated label of a given site. The bond experiences are carried out by competition between the molecule to be tested and the appropriate radioligand on a membrane preparation rich in sites to be studied.
For the PCP1 sites, the tritiated label used is [^3H]TCP and the tests are carried out on membrane preparations originating from anterior cerebrum homogenates of rats.

[2] = target: PCP2 sites; experiment: [3H]TCP displacement, cerebellum membranes, 2-site model, PCP2; conditions: [3H]TCP 2.5 nM, rat cerebellum
Procedure: as §1, with “studied. The concentration of the derivative tested which inhibits 50% of the bond of the radioligand to the receptor is called IC50.” for “studied.”
(§2) For the experimental conditions and membrane preparation techniques used, reference can be made to the literature (Brain Res., 378, 133-141 (1986); Eur. J. Pharm., 81, 531-542 (1982)).
(§3) For low affinity sites, the monosite treatment used led to incoherent results. The experimental data have therefore been reprocessed using non-linear regression (Marquardt-Levenberg algorithm) with Sigma Plot software (Jandel) according to a model with two noted sites of interaction PCP2 and PCP3. This processing proves to be more suitable than a monosite treatment (Student test: p<0.05) over a set of 3 to 4 experiments for each compound tested. Over all the experiments, the two site populations are found in a relative proportion to 68.0% (±1.5) for the PCP2 sites and 31.2% (±1.5) for the PCP3 sites.
(§4) For the PCP2 and PCP3 sites, the preparation originates from rat cerebella. Not having a specific label, only [^3H]TCP can be used. A more significant concentration of tritiated ligand (2.5 nM versus 1 nM in the cortex) is used to ensure that all the PCP2 and PCP3 sites are occupied.

[3] = target: PCP3 sites; experiment: [3H]TCP displacement, cerebellum membranes, 2-site model, PCP3; conditions: [3H]TCP 2.5 nM, rat cerebellum
Procedure: as §1, with “studied. The concentration of the derivative tested which inhibits 50% of the bond of the radioligand to the receptor is called IC50.” for “studied.”
as §2, §3, §4

[4] = target: T2, PCP receptors (Rattus norvegicus, UniProt P35439); experiment: Percentage inhibition on PCP receptors ([3H]TCP, cerebral cortex membranes); conditions: compound 10 μM
T2 construct: membrane preparations originating from cerebral cortex of a rat; from tissue; host or cells: rat cerebral cortex membranes
Procedure: Percentage inhibition on PCP receptors:
The tritiated label used is [^3H]TCP and the tests are carried out on membrane preparations originating from cerebral cortex of a rat (Brain Res., 378, 133-141 (1986).

[5] = [3H]TCP 1 nM, rat cortex (anterior cerebrum) membranes, read-out: cortex 1 site IC50
[6] = cortex 1 site IC50, [3H]TCP 1 nM, rat cortex (anterior cerebrum) membranes
[7] = cortex 1 site IC50, [3H]TCP 1 nM, rat cortex membranes, bound in μM

| SMILES | cortex 1 site nH [1] | IC50 [1, 5] | IC50 ([2]; two-site non-linear regression) | IC50 ([3]; two-site non-linear regression) | IC50 [1, 6] | inhibition at 10 µM [4] | IC50 [1, 7] | IC50 ([2]; bound in μM) | IC50 ([3]; bound in μM) |
| --- | --- | --- | --- | --- | --- | --- | --- | --- | --- |
| Cc1csc(C2(N3CCCCC3)CCSCC2)c1 [Ex 12, N-[4-(4-methyl-thiophen-2-yl)-tetrahydro-4H-thiopyran-4-yl]-piperidine] | 0.93 | 0.0778 µM | 0.772 µM | 0.0054 µM | – | – | – | – | – |
| CC1CCCN(C2(c3cccs3)CCCCC2)C1 (racemic) [Ex 22 (±), N-[1-(2-thienyl)-cyclohexan-1-yl]-3-methyl piperidine] | 1.09 | – | 0.0473 µM | 1.45 µM | 0.0055 µM | – | – | – | – |
| CC1CCCN(C2(c3cccs3)CCSCC2)C1 (racemic) [Ex 2, (±)-N-[4-(2-thienyl)-tetrahydro-4H-thiopyran-4-yl]-3-methyl-piperidine] | 1.14 | 0.132 µM | 0.265 µM | 2.85 µM | – | – | – | – | – |
| C[C@@H]1CCCN(C2(c3cccs3)CCSCC2)C1 [Ex 4, R-(+)-N-[4-(2-thienyl)-tetrahydro-4H-thiopyran-4-yl]-3-methyl-piperidine] | 0.84 | 0.024 µM | 0.0532 µM | 2.08 µM | – | – | – | – | – |
| OCC1CCCN(C2(c3cccs3)CCCCC2)C1 (stereo not drawn) [Ex 8, N-[1-(2-thienyl)-cyclohexan-1-yl]-3-hydroxymethyl-piperidine] | 0.96 | 0.0284 µM | 2.24 µM | 0.0124 µM | – | – | – | – | – |
| c1ccc2oc(C3(N4CCCCC4)CCSCC3)cc2c1 [Ex 10, N-[4-(2-benzofuryl)-tetrahydro-4H-thiopyran-4-yl]-piperidine] | 0.9 | 27.5 µM | 26.6 µM | 0.0591 µM | – | 18% | – | – | – |
| C[C@@H]1CCCN(C2(c3cc4ccccc4s3)CCSCC2)C1 [Ex 6, R-(+)-N-[4-(2-benzothiophenyl)-tetrahydro-4H-thiopyran-4-yl]-3-methyl-piperidine] | – | – | – | 0.28 µM | – | – | > 100 µM | > 100 µM | – |
| Cc1ccc(C2(N3CCCCC3)CCSCC2)s1 [Ex 11, N-[4-(5-methyl-thiophen-2-yl)-tetrahydro-4H-thiopyran-4-yl]-piperidine] | 0.97 | 0.462 µM | 0.532 µM | – | – | – | – | – | > 100 µM |
| c1csc(C2(N3CCCCC3)CCCSC2)c1 (stereo not drawn) [Ex 21, N-[3-(2-thienyl)-tetrahydro-4H-thiopyran-3-yl] piperidine] | 1.00 | 0.0734 µM | 0.659 µM | 0.008 µM | – | – | – | – | – |
| c1coc(C2(N3CCCCC3)CCCCC2)c1 [Ex 18, N-[1-(2-furyl)-cyclohexan-1-yl] piperidine] | 0.83 | 0.0078 µM | 0.187 µM | 0.0056 µM | – | – | – | – | – |
| CC1CCCN(C2(c3cc4ccccc4s3)CCSCC2)C1 (racemic) [Ex 5, (±)-N-[4-(2-benzothiophenyl)-tetrahydro-4H-thiopyran-4-yl]-3-methyl-piperidine] | – | – | – | 0.581 µM | – | – | > 100 µM | > 100 µM | – |
| CC1CCCN(C2(c3cccs3)CCCCC2)C1 (single isomer, unassigned) [Ex 22 (−), N-[1-(2-thienyl)-cyclohexan-1-yl]-3-methyl piperidine] | 1.08 | – | – | – | 0.158 µM | – | – | – | – |
| CC1CSCCC1(c1cccs1)N1CCCCC1 (single isomer, unassigned) [Ex 1 (minority), N-[4-(2-thienyl)-3-methyl-tetrahydro-4H-thiopyran-4-yl] piperidine] | 0.89 | – | 1.35 µM | 0.0176 µM | 0.0268 µM | – | – | – | – |
| c1csc(C2(N3CCCCC3)CCCCC2)c1 [TCP, N-(1-(2-thienyl)cyclohexyl)piperidine, reference compound] | – | – | 0.059 µM | 3.72 µM | – | – | – | – | – |
| CC1CCCN(C2(c3cccs3)CCCCC2)C1 (single isomer, unassigned) [Ex 22 (+), N-[1-(2-thienyl)-cyclohexan-1-yl]-3-methyl piperidine] | 1.04 | – | 0.0283 µM | 0.808 µM | 0.0052 µM | – | – | – | – |
| CC1CSCCC1(c1cccs1)N1CCCCC1 (single isomer, unassigned) [Ex 1 (majority), N-[4-(2-thienyl)-3-methyl-tetrahydro-4H-thiopyran-4-yl] piperidine] | 0.94 | – | – | – | 17.2 µM | – | – | – | – |
| c1csc(C2(N3CCCCC3)CCSCC2)c1 [Ex 19, N-[4-(2-thienyl)-tetrahydro-4H-thiopyran-4-yl] piperidine] | 1.05 | 0.0716 µM | 0.586 µM | 0.0085 µM | – | – | – | – | – |
| CCNC1(c2cccs2)CCCCC1 [Ex 17, N-ethyl-1-(2-thienyl)-cyclohexylamine] | 0.77 | – | 0.055 µM | 47.6 µM | 0.0209 µM | – | – | – | – |
| c1coc(C2(N3CCCCC3)CCSCC2)c1 [Ex 9, N-[4-(2-furyl)-tetrahydro-4H-thiopyran-4-yl]-piperidine] | 0.87 | 0.133 µM | 1.02 µM | 0.0138 µM | – | 96% | – | – | – |
| C[C@H]1CCCN(C2(c3cc4ccccc4s3)CCSCC2)C1 [Ex 7, S-(−)-N-[4-(2-benzothiophenyl)-tetrahydro-4H-thiopyran-4-yl]-3-methyl-piperidine] | 0.73 | – | 84 µM | 0.639 µM | 82.8 µM | – | – | – | – |
| c1csc(C2(N3CCCCC3)CCOCC2)c1 [Ex 20, N-[4-(2-thienyl)-tetrahydro-4H-pyran-4-yl] piperidine] | 0.98 | 1.22 µM | 5.84 µM | 0.035 µM | – | – | – | – | – |
